Experimental data reported in patent US20060287320A1, “Preparation of thioarabinofuranosyl compounds and use thereof” (Southern Research Institute, priority 1998, published 2006).
Each block holds one compound with its values, some of them ahead of it.

Columns and labels:
[1] = test system: SC Colon 36 Tumor; assay: Response of SC Colon 36 Tumor to Treatment; assay type: in vivo; conditions: 18 Mg/Kg IP, Q 1D × 9 day 9
Procedure: (§1) The following in vivo tests were carried out to illustrate the effectiveness of the compounds of the present invention.

[2] = test system: SC CAKI-1 Renal Tumor; assay: Response of SC CAKI-1 Renal Tumor to Treatment; assay type: in vivo
Procedure: as §1

[3] = test system: SC HCT-116 Colon Tumor; assay: Response of SC HCT-116 Colon Tumor to Treatment; assay type: in vivo; conditions: Q 1D × 9 day 6
Procedure: as §1

[4] = test system: CEM cells; assay: Initial half-life of triphosphates in CEM cells; assay type: cell-based; conditions: CEM cells after 1 hour with 100 nM radiolabeled nucleoside, then fresh medium; 5′-triphosphate peak
Procedure: Samples were collected at various times after the cells were resuspended in fresh medium, and the amount of radioactivity in the 5'-triphosphate peak was determined using SAX HPLC. The data presented are the mean and standard deviation from 3 separate experiments.

[5] = test system: CAK1-1 Renal; assay: In vitro IC50, 72 hour exposure, Natural Red assay; assay type: cell-based; conditions: read-out: IC50 Molar Values
Procedure: (§2) EXAMPLE 3 The following in vitro tests were carried out.
(§3) The above tests were carried out with a 72 hour exposure to the compound using Natural Red assay for all cell lines except SK-MEL 28 which was done with SRB assay.

[6] = test system: DLD-1 Colon; assay: In vitro IC50, 72 hour exposure, Natural Red assay; assay type: cell-based; conditions: Homo sapiens, read-out: IC50 Molar Values
Procedure: as §2, §3

[7] = test system: LOX IMV1 Melanoma; assay: In vitro IC50, 72 hour exposure, Natural Red assay; assay type: cell-based; conditions: read-out: IC50 Molar Values
Procedure: as §2, §3

[8] = test system: NC1-H23 Lung; assay: In vitro IC50, 72 hour exposure, Natural Red assay; assay type: cell-based; conditions: read-out: IC50 Molar Values
Procedure: as §2, §3

[9] = test system: PC-3 Prostate; assay: In vitro IC50, 72 hour exposure, Natural Red assay; assay type: cell-based; conditions: read-out: IC50 Molar Values
Procedure: as §2, §3

[10] = test system: ZR-75-1 Mammary; assay: In vitro IC50, 72 hour exposure, Natural Red assay; assay type: cell-based; conditions: Homo sapiens, read-out: IC50 Molar Values
Procedure: as §2, §3

[11] = test system: CEM cells (wild-type); assay: Metabolism of dCyd and analogs in wild-type CEM cells; assay type: cell-based; conditions: WT CEM cells; 100 nM; incubation time 0.25 hours
Procedure: (§4) The radioactivity in the 5′-triphosphate peak and the incorporation of radioactivity in the acid-insoluble fraction (DNA) was determined.

[12] = test system: araC-resistant CEM cells; assay: Metabolism of dCyd and analogs in araC-resistant CEM cells; assay type: cell-based; conditions: 100 nM, incubation time 0.25 hours
Procedure: as §4

[13] = Phosphorylation in cell-free CEM extracts, wild-type; assay type: biochemical; conditions: wild-type CEM cell extract; 1 μm substrate
Procedure: (§5) The number in parentheses is the number of experiments performed. […] At various times after the initiation of the experiment, an aliquot of each reaction volume was removed and placed on DE-81 filters. The filters were washed with 1 mM ammonium formate and ethanol, and the amount of radioactivity on each filter was determined. […] This assay was verified by HPLC.

[14] = Phosphorylation in cell-free CEM extracts, araC-resistant; assay type: biochemical; conditions: phosphorylation in araC-resistant vs wild-type CEM extract
Procedure: as §5

[15] = test system: CEM cells; assay: Complete metabolism of dCyd, T-dCyd, araC and T-araC in CEM cells; assay type: cell-based; conditions: 100 nM, incubation 1 hour
Procedure: The complete metabolism of each compound was determined: The medium was analyzed for the original compound, its deaminated form using reverse phase HPLC, and H20; the acid-soluble extract was analyzed by SAX HPLC for phosphorylated metabolites; and the incorporation of radioactivity into acid-precipitable material (DNA) was determined.

[16] = test system: CEM cells; assay: Effect of F-dUrd on metabolism (deamination) in CEM cells; assay type: cell-based; conditions: 100 nM, incubation time 1 hour
Procedure: The complete metabolism of each compound was determined as described in the legend to Table 12, and the percent of deaminated metabolites for each compound was determined.

[17] = test system: CEM cells; assay: Retention of araCTP and T-araCTP in CEM cells (FIG. 2); assay type: cell-based
Procedure: […]. Samples were collected at various times after the cells were resuspended in fresh medium, and the amount of radioactivity in the 5′-triphosphate peak was determined using SAX HPLC. In this experiment there was 0.639 pmoles araCTP/10^6 cells and 0.246 pmoles of T-araCTP after the 1 hour incubation with radiolabeled compound.

Compound: CCCCCCCCCCCCCCCC(=O)Nc1ccn([C@@H]2O[C@H](CO)[C@@H](O)[C@@H]2O)c(=O)n1 [Palmo-ARA-C]
- Days Delay (T − C) [1]: >38.5 days
- Days to 2 Doubling [1]: >49.0 days
- Non-Specific Deaths/Total [1]: 0/5
- Tumor Free Surv/Total [1]: 4/5
- Tumor Regression Duration Med [1]: 34.6 days
- Tumor Regression Duration Range (Days) [1]: 35-35 Days
- Tumor Regression Number of Complete [1]: 5
- Tumor Regression Number of Partial [1]: 0
- Days Delay (T − C) ([2]; 22.5 Mg/Kg IP, 0 1D × 9 day 7): 26.5 days
- Days to 3 Doubling ([2]; 22.5 Mg/Kg IP, 0 1D × 9 day 7): 36.0 days
- Non-Specific Deaths/Total ([2]; 22.5 Mg/Kg IP, 0 1D × 9 day 7): 1/6
- Tumor Free Surv/Total ([2]; 22.5 Mg/Kg IP, 0 1D × 9 day 7): 0/6
- Tumor Regression Duration Med ([2]; 22.5 Mg/Kg IP, 0 1D × 9 day 7): 9.1 days
- Tumor Regression Duration Range (Days) ([2]; 22.5 Mg/Kg IP, 0 1D × 9 day 7): 9-9 Days
- Tumor Regression Number of Complete ([2]; 22.5 Mg/Kg IP, 0 1D × 9 day 7): 1
- Tumor Regression Number of Partial ([2]; 22.5 Mg/Kg IP, 0 1D × 9 day 7): 0
- Days Delay (T − C) ([2]; 45 Mg/Kg IP, Q 1D × 5 day 7): 31.7 days
- Days to 3 Doubling ([2]; 45 Mg/Kg IP, Q 1D × 5 day 7): 41.2 days
- Non-Specific Deaths/Total ([2]; 45 Mg/Kg IP, Q 1D × 5 day 7): 4/6
- Toxicity remark under Days Delay (T − C) ([2]; 45 Mg/Kg IP, Q 1D × 5 day 7): (Toxic)
- Tumor Free Surv/Total ([2]; 45 Mg/Kg IP, Q 1D × 5 day 7): 0/6
- Tumor Regression Number of Complete ([2]; 45 Mg/Kg IP, Q 1D × 5 day 7): 0
- Tumor Regression Number of Partial ([2]; 45 Mg/Kg IP, Q 1D × 5 day 7): 0
- Days Delay (T − C) ([3]; 15 Mg/Kg IP): 6.0 days
- Days to 2 Doubling ([3]; 15 Mg/Kg IP): 14.9 days
- Non-Specific Deaths/Total ([3]; 15 Mg/Kg IP): 0/6
- Tumor Free Surv/Total ([3]; 15 Mg/Kg IP): 0/6
- Tumor Regression Number of Complete ([3]; 15 Mg/Kg IP): 0
- Tumor Regression Number of Partial ([3]; 15 Mg/Kg IP): 0
- Days Delay (T − C) ([3]; 22.5 Mg/Kg IP): 15.1 days
- Days to 2 Doubling ([3]; 22.5 Mg/Kg IP): 24.0 days
- Non-Specific Deaths/Total ([3]; 22.5 Mg/Kg IP): 0/6
- Tumor Free Surv/Total ([3]; 22.5 Mg/Kg IP): 0/6
- Tumor Regression Duration Med ([3]; 22.5 Mg/Kg IP): 24.2 days
- Tumor Regression Duration Range (Days) ([3]; 22.5 Mg/Kg IP): 24-24 Days
- Tumor Regression Number of Complete ([3]; 22.5 Mg/Kg IP): 1
- Tumor Regression Number of Partial ([3]; 22.5 Mg/Kg IP): 0

Compound: Nc1ccn([C@H]2C[C@H](O)[C@@H](COP(=O)(O)OP(=O)(O)OP(=O)(O)O)O2)c(=O)n1 [dCTP]
- Initial Half-Life, Hours (SD) [4]: 0.94 ± 0.16 h

Compound: Nc1ccn([C@H]2C[C@H](O)[C@@H](CO)O2)c(=O)n1 [dCyd, 2′-deoxycytidine]
- DNA [11]: 1.19 pmoles/10^6 cells
- Total [11]: 3.46 pmoles/10^6 cells
- DNA [12]: 0.011 pmoles/10^6 cells
- DNA (percent of WT) [12]: 0.89% of WT
- Total [12]: 0.032 pmoles/10^6 cells
- Total (percent of WT) [12]: 0.91% of WT
- Phosphorylation, Wild-type [13]: 240 ± 33 pmoles/mg protein/minute
- Percent of wild-type [14]: 1.5% of wild-type
- DNA (percent of total) [15]: 3% of total
- Original Compound (percent of total) [15]: 38% of total
- Percent Deamination ([16]; F-dUrd 0 μM): 32%
- Percent Deamination ([16]; F-dUrd 10 μM): 22%

Compound: Nc1ccn([C@@H]2O[C@H](COP(=O)(O)OP(=O)(O)OP(=O)(O)O)[C@@H](O)[C@@H]2O)c(=O)n1 [araCTP]
- Initial Half-Life, Hours (SD) [4]: 5.31 ± 0.31 h
- araCTP after the 1 hour incubation ([17]; CEM cells, 1 hour with 5 nM [5-3H]araC): 0.639 pmoles/10^6 cells

Compound: Nc1ccn(C2CC(O)C(COP(=O)(O)OP(=O)(O)OP(=O)(O)O)S2)c(=O)n1 (stereo not shown) [T-dCTP]
- Initial Half-Life, Hours (SD) [4]: 1.10 ± 0.35 h

Other lines, results leading:

- IC50 [5]: 20 µM
- IC50 [6]: 80 µM
- IC50 [7]: 6 µM
- IC50 [8]: 3 µM
- IC50 [9]: 100 µM
- IC50 [10]: 0.6 µM
Compound: Nc1nc(=O)n([C@@H]2S[C@H](CO)[C@@H](O)[C@@H]2O)cc1F [5-fluorothioaraC, 1-(4-Thio-β-D-arabinofuranosyl)5-fluorocytosine]

- Initial Half-Life, Hours (SD) [4]: 10.8 ± 1.80 h
- T-araCTP after the 1 hour incubation [17]: 0.246 pmol
Compound: Nc1ccn(C2SC(COP(=O)(O)OP(=O)(O)OP(=O)(O)O)C(O)C2O)c(=O)n1 (stereo not shown) [T-araCTP]
